Measured values: patent US8758779B2, “Pharmaceutical composition of duloxetine” (Wockhardt Ltd., priority 2009, dated 2014)

Experiments:
[1] = acidic environment of gastrointestinal tract; cited from earlier work
[2] = Solubility studies (turbidity or clarity of the resultant solution); format: physicochemical; conditions: duloxetine present along with one or more cyclodextrin or derivatives, as physical admixture or complex
Experimental: Weighed amount of duloxetine hydrochloride was dispersed in required quantity of water at room temperature. To the above dispersion sodium bicarbonate, propylene glycol, sodium lauryl sulphate or Hydroxypropyl Beta-cyclodextrin was added in requisite amount as specified in Table 5.

[3] = water; cited from earlier work

For CNCC[C@H](Oc1cccc2ccccc12)c1cccs1 [Duloxetine], the Acid stability [1] is listed as “acid labile”, the “Solubility of duloxetine in presence of cyclodextrin” value [2] is listed as “significant increase in solubility” and the Aqueous solubility [3] is listed as “slightly soluble in water”.
